From ChEMBL document CHEMBL1157093, “Lactonecembranoids from Croton laevigatus” (J Nat Prod, 2010)

System: HeLa
Experiment: Antiproliferative activity against human HeLa cells by MTT assay; call rule not given here
Assay type: functional, cell-based

SMILES | IC50 (Homo sapiens, HeLa, read-out: IC50) [µM] | IC50 (hela)
C/C1=C\CC[C@](C)(O)/C=C/[C@]2(C(C)C)CC/C(=C/CC1)C(=O)O2 (relative stereo) [LAEVIGATLACTON B] | 38.4 | –
C/C1=C\CC[C@@](C)(O)/C=C/[C@]2(C(C)C)CC/C(=C\CC1)C(=O)O2 (relative stereo) [LAEVIGATLACTONE A] | – | Not Active
CC(C)[C@@]12/C=C/[C@@](C)(O)C/C=C/[C@](C)(O)CC/C=C(\CC1)C(=O)O2 (relative stereo) [LAEVIGATLACTONE E] | – | Not Active
CC(C)[C@@]12/C=C/[C@@](C)(O)C/C=C/[C@](C)(OO)CC/C=C(\CC1)C(=O)O2 (relative stereo) [LAEVIGATLACTONE F] | – | Not Active

Now from value to compound:

IC50 (Homo sapiens, HeLa, read-out: IC50) [µM] | IC50 (hela) | SMILES
– | Not Active | C/C1=C\CC[C@](C)(O)/C=C/[C@]2(C(C)C)CC/C(=C\CC1)C(=O)O2 (relative stereo) [LAEVIGATLACTONE C]
– | Not Active | C/C1=C\CC/C(C)=C/[C@@H](O)[C@]2(C(C)C)CC/C(=C\CC1)C(=O)O2 (relative stereo) [LAEVIGATLACTONE D]
– | Not Active | C/C1=C\C=C(\C(C)C)CC/C(C(=O)O)=C\CC/C(C)=C/CC1 [NEOCROTOCEMBRANEIC ACID]
